According to paper PMC10892142, “Synthesis and In Vitro Antitumor Activity Evaluation of Gefitinib-1,2,3-Triazole Derivatives” (Molecules, 2024):

What was measured:
NCI-H1299 cells = assay: CCK-8 assay, NCI-H1299 cells; format: cell-based, human; details: Homo sapiens, NCI-H1299; CCK-8, 48 h, mean ± SD, n = 3
Method: (§1) Next, cell viability was determined according to the instructions of the CCK-8 assay. Then, 10 μL CCK-8 solution was added to each well of the plate and incubated for 1–4 h in the incubator. […] The percentage of viable cells was measured using the following formula where three independent experiments were performed: [(A450sample − A450blank)/(A450control − A450blank)] × 100%.

H1299 cells [1] = assay: Colony formation assay; format: cell-based, human; details: seven days
Method: H1299 cells were seeded in six-well plates at a density of 500 cells per well and treated with 4b or 4c (1, 2 and 4 μM) for seven days. Then, cells were per-fixed with 4% paraformaldehyde for 30 min, stained with 0.1% crystal violet for 15 min and then washed with pure water. After destain with water, the plates were allowed to dry at room temperature overnight. Image J was used to count the number of clone formations.

H1299 cells [2] = assay: DAPI staining for cell apoptosis; format: cell-based, human; details: H1299, 2, 4 and 8 μM, 48 h
Method: H1299 (1.5 × 10^4–2 × 10^4/well) cells were seeded in 24-well plates for 24 h and then treated with 4b or 4c at the concentrations of 2, 4 and 8 μM for 48 h. The cells were fixed for 30 min at room temperature in 4% paraformaldehyde and washed three times in PBS. Finally, every well was stained with DAPI (10 μg/mL) at room temperature for 30 min and washed at least three times in PBS. The fluorescence microscope was used to observe the morphological changes of cell nuclei.

H1299 cells [3] = assay: Transwell migration assay; format: cell-based, human; details: H1299, 2, 4 and 8 μM, 24 h, vs normal control
Method: Transwell assay was used to determine the migration ability of H1299 cells. Cells were starved in serum-free RPMI 1640 medium for 24 h, then detached and resuspended in serum-free RPMI 1640 medium. 5 × 10^5 cells/mL were inoculated into the upper chamber of a 24-well Transwell plate (Corning Inc., Corning, NY, USA), with a volume of 100 μL per well. Then, 100 μL serum-free medium containing 4b or 4c (2, 4 and 8 μM) was added to the upper chamber and the lower chamber was filled with 700 μL medium containing 20% FBS. After incubation for 24 h, H1299 cells on the upper membrane of the transwell were wiped off. The migrated cells were treated with 4% paraformaldehyde for 20 min, stained with 0.1% crystal violet for 20 min and washed three times with PBS. The number of H1299 cells that migrated to the underside of the membrane was counted under the inverted fluorescence microscope. Three randomly selected areas from each transwell were photographed and calculated using Image J.

H1299 cells [4] = assay: Wound healing (cell scratch) assay; format: cell-based, human; details: 24 h
Method: H1299 cells were seeded in a 6-well plate. When the cell confluency reached 95%, a wound line was scratched using a 200 μl pipette tip and then washed three times. Then, fresh medium containing 4b or 4c (2, 4 and 8 μM) was added and the plate was incubated at 37 °C with 5% CO2. All images were captured at 0 h and 24 h under an inverted microscope, and the quantification of scratches was analyzed using Image J (https://imagej.net/ij/, accessed on 4 January 2024).

MMP9 = assay: Western blot, MMP9 in H1299 cells; format: cell-based, human; details: H1299, with increasing drug concentration
Method: (§2) Firstly, H1299 cells were treated with the different concentrations of 4b and 4c at 4, 8 and 16 μM for 48 h. Then, cells were harvested using RIPA lysate (R0010, Solarbio, Beijing, China) and centrifuged at 12,000× g rpm for 15 min at 4 °C. Following that, the concentration of total protein was measured and taken from the supernatant. Protein was separated by 12% SDS-polyacrylamide gel electrophoresis and transferred to nitrocellulose filter membrane. After blocking in 5% milk for 2 h, the membranes were incubated with a specific primary antibody at 4 °C overnight. The next day, NC membranes were incubated for 1 h at room temperature with appropriate secondary antibodies and then protein bands were visualizing by chemiluminescence detection (ECL kit, Genview, Beijing, China).

H1299 cells [5] = assay: Annexin V-EGFP/PI flow cytometry for cell apoptosis; format: cell-based, human; details: 48 h
Method: H1299 cells were seeded in a 6-well plate at a density of 1 × 10^5 cells/well and incubated for 24 h. The following day, the medium was replaced with fresh medium containing 4b or 4c (2, 4 and 8 μM) and cells were incubated for an additional 48 h. Cell apoptosis was detected using Annexin V-EGFP/PI apoptosis detection kit (Beyotime Biotechnology, Shanghai, China) by flow cytometry. Subsequently, 5 μL of […] Annexin V and 10 μL of PI was added to the cell suspension, gently vortexed and incubated at room temperature in the dark for 20 min. Then, single-cell suspension was prepared followed by flow cytometry (BD Accuri™ C6 Plus, BD Biosciences, Franklin Lake, NJ, USA).

[6] = system: Bcl-2/caspase3/PARP signaling pathway; assay: Western blot, apoptosis proteins in H1299 cells; format: cell-based, human; details: H1299, 4, 8 and 16 μM, 48 h
Method: as §2

L02 cells = assay: CCK-8 assay, normal hepatic cells L02; format: cell-based; details: Homo sapiens; for inhibition at 2 µM / inhibition at 4 µM / inhibition at 8 µM / inhibition at 16 µM / inhibition at 32 µM: L02, 48 h, L02 cells, read-out: Inhibition Rate %, 48 h; for IC50: normal hepatic cells L02, CCK-8, 48 h, mean ± SD, n = 3
Method: NCI-H1299, NCI-H1437 and L02 cells were cultured in a humidified incubator (Thermo Scientific™ Forma™ Direct Heat CO2 Incubator, Waltham, MA, USA) at 37 °C with 5% CO2 in RPMI-1640 supplemented with 10% fetal bovine serum (FBS) and 1% Penicillin Streptomycin. A549 cells were cultured in a humidified incubator at 37 °C with 5% CO2 in Ham’s F-12K supplemented with 10% FBS and 1% Penicillin Streptomycin.
(§3) Three types of lung cells and L02 cells were seeded into 96-well plate at a density of 5 × 10^3 cells per well in the logarithmic growth phase and cultured at 37 °C. The cells were then treated initially with different concentrations of compounds 4a–4n (0, 2, 4, 8, 16 and 32 μM) for an additional 48 h, with three replicate wells each. Next, cell viability was determined according to the instructions of the CCK-8 assay. Then, 10 μL CCK-8 solution was added to each well of the plate and incubated for 1–4 h in the incubator. The absorbance was measured at 450 nm using a microplate reader (Bio-Tek, Winooski, VT, USA). The percentage of viable cells was measured using the following formula where three independent experiments were performed: [(A450sample − A450blank)/(A450control − A450blank)] × 100%.

lung cancer cells = assay: CCK-8 assay, lung cancer cells (line not specified); format: cell-based; details: read-out: inhibition rate on lung cancer cells
Method: as §3

NCI-H1437 cells = assay: CCK-8 assay, NCI-H1437 cells; format: cell-based; details: Homo sapiens, NCI-H1437; CCK-8, 48 h, mean ± SD, n = 3
Method: as §1

A549 cells = assay: CCK-8 assay, A549 cells; format: cell-based; details: Homo sapiens, A549; CCK-8, 48 h, mean ± SD, n = 3
Method: as §1

| Compound | IC50 (NCI-H1299 cells) [µM] | formation of H1299 cell colonies (H1299 cells [1]; 1 μM) | formation of H1299 cell colonies (H1299 cells [1]; 4 μM) | nuclear morphology (DAPI staining) (H1299 cells [2]) | number of cells crossing the microporous membrane (H1299 cells [3]) | melting point [°C] | migration closure rate (H1299 cells [4]; H1299, 2 μM) [%] | migration closure rate (H1299 cells [4]; H1299, 4 μM) [%] | migration closure rate (H1299 cells [4]; H1299, 8 μM) [%] | MMP9 protein expression (MMP9) | total apoptotic cell proportion (H1299 cells [5]; H1299, 2 μM) [%] | total apoptotic cell proportion (H1299 cells [5]; H1299, 4 μM) [%] | total apoptotic cell proportion (H1299 cells [5]; H1299, 8 μM) [%] | expression level of Bcl-2 protein [6] | expression level of PARP protein [6] | expression level of caspase 3 protein [6] | expression level of caspase 9 protein [6] | expression level of cleaved PARP protein [6] | expression level of cleaved caspase 3 protein [6] | inhibition at 2 µM (L02 cells) [%] | other results |
| --- | --- | --- | --- | --- | --- | --- | --- | --- | --- | --- | --- | --- | --- | --- | --- | --- | --- | --- | --- | --- | --- |
| COc1cc2ncnc(Nc3cccc(-c4cn(Cc5ccccc5Br)nn4)c3)c2cc1OCCCN1CCOCC1 [Compound 4b, N-(3-(1-(2-Bromobenzyl)-1H-1,2,3-triazol-4-yl)phenyl)-7-methoxy-6-(3-morpholinopropoxy)quinazolin-4-amine] | 4.42 ± 0.24 | significantly inhibit | almost completely inhibited | typical apoptotic features | significant reduction | 165 to 166 | 72.59 ± 2.12 | 62.42 ± 5.50 | 49.79 ± 2.22 | decrease in MMP9 protein expression | 20.43 ± 1.72 | 43.2 ± 2.4 | 77.4 ± 3.97 | concentration-dependent decrease | concentration-dependent decrease | concentration-dependent decrease | concentration-dependent decrease | increased | increased | 9.09 ± 1 | inhibition at 4 µM (L02 cells): < 20%; inhibition at 8 µM (L02 cells): 29.8 ± 1.27%; inhibition at 16 µM (L02 cells): 39.1 ± 2.18%; inhibition at 32 µM (L02 cells): 64.8 ± 1.84%; IC50 (L02 cells): 20.2 ± 1.26 µM; inhibition at 4 µM (lung cancer cells): 50%; IC50 (NCI-H1437 cells): 1560 ± 60 nM; IC50 (A549 cells): 3.94 ± 0.01 µM |
| COc1cc2ncnc(Nc3cccc(-c4cn(Cc5cccc(F)c5)nn4)c3)c2cc1OCCCN1CCOCC1 [Compound 4c, N-(3-(1-(3-Fluorobenzyl)-1H-1,2,3-triazol-4-yl)phenyl)-7-methoxy-6-(3-morpholinopropoxy)quinazolin-4-amine] | 4.6 ± 0.18 | significantly inhibit | almost completely inhibited | typical apoptotic features | significant reduction | 202 to 203 | 53.26 ± 4.51 | 40.04 ± 8.02 | 17.90 ± 3.46 | decrease in MMP9 protein expression | 16.37 ± 0.57 | 31.2 ± 2.36 | 51.77 ± 6.74 | concentration-dependent decrease | concentration-dependent decrease | concentration-dependent decrease | concentration-dependent decrease | increased | increased | 7.18 ± 1.22 | inhibition at 4 µM (L02 cells): < 20%; inhibition at 8 µM (L02 cells): 27.6 ± 2.79%; inhibition at 16 µM (L02 cells): 30.6 ± 1.93%; inhibition at 32 µM (L02 cells): 56.1 ± 5.77%; IC50 (L02 cells): 29.4 ± 5.53 µM; inhibition at 4 µM (lung cancer cells): 50%; IC50 (NCI-H1437 cells): 3510 ± 50 nM; IC50 (A549 cells): 4 ± 0.08 µM |
